Where no end group is shown, it is not given here.
Test system: CLP model of polymicrobial sepsis
Test: Blinded clinical illness severity score after CLP
Format: in vivo, mouse (outbred Swiss Webster)
Conditions: compared to vehicle control
Procedure: Mice were anesthetized with 3% isoflurane in an induction chamber, and anesthesia was maintained by use of inhalation via nose cone. Sepsis was induced by cecal ligation and puncture (CLP) as previously described ([30], [31]). […] The animals received subcutaneous sterile isotonic saline (0.5 mL) for fluid resuscitation immediately after surgery. Sham-operated mice were subjected to identical procedures, except that ligation and puncture of the cecum was omitted. Survival of mice subjected to CLP or sham injury was determined daily for 6 days. Twenty-four and 48 hours after CLP, all animals were scored for clinical illness severity as previously described ([32]) by an examiner blinded to treatment arm. In this assessment, higher scores reflect increased illness severity with non-surviving mice receiving a score of 10. These mice were included in the statistical analysis. In additional experiments, mature Swiss-webster mice were treated with sham surgery or CLP procedure. At 4 hours after surgery, mice underwent blinded clinical illness severity assessment, measurement of body weight and temperature, peritoneal fluid and whole blood neutrophil counts, whole blood platelet counts, and plasma creatinine level determination.

[1] = nNIF 1 mg/kg IV at 4 and 10 hours after CLP

In the case of “KFNKPFVFLMIEQNTKSPLFMGKVVNPTQ-OH [nNIF, neonatal NET-Inhibitory Factor]”, the “illness severity score at 48 hours” value (nNIF 0.5 mg/kg IV at 4 and 10 hours after CLP) was “improvement in the illness severity scores”, the “illness severity score at 24 hours” value [1] was “improvement in the illness severity scores” and the “illness severity score at 48 hours” value [1] was “improvement in the illness severity scores”.

— publication PMC9888311, “Neonatal NET-Inhibitory Factor improves survival in the cecal ligation and puncture model of polymicrobial sepsis by inhibiting neutrophil extracellular traps” (Frontiers in Immunology, 2023)
